Tested on: Wheat (variety "Riband")
Assay: Phytotoxicity on pot-grown wheat after track-sprayer application
Format: in vivo
Conditions: versus 2S,4R (Ia), 2R,4R (Ic) and 2S,4S (Id)
Protocol: Wheat seeds (variety “Riband”) were sown in 6.5 cm diameter pots with typically 6 seeds per pot. The growing media comprised 66.5% TKS1 peat soil, 30% sugar beet soil and 3.5% sand. The seeds were covered with a fine layer of soil and the pots were watered. Within a day of sowing the pots were treated with 5 mL of a solution of the growth regulator trinexapac-ethyl (Moddus 250 EC™ from Syngenta) diluted 1 part in 1000 parts water. The pots were kept in a controlled environment room at 19° C. constant temperature, 60% relative humidity and a 14 hour day length until test treatment at which time the plants were around 3 weeks old. Plant density was reduced to typically 4 plants per pot prior to application of the test treatments.
The difenoconazole formulations were mixed with water and ultrasonically agitated in order to achieve a homogeneous emulsion. Spray solutions were then made with 9 parts water to 1 part isopropanol by volume. The test treatments were applied using a track-sprayer with a single flat-fan nozzle at a height of 60 cm and calibrated to apply the equivalent of 200 litres per hectare.
The symptoms of phytotoxicity on wheat caused by difenoconazole included chlorosis and/or necrosis.
Test wheat plants were grown and the formulations applied as for Example 3. […]

`C[C@H]1CO[C@](Cn2cncn2)(c2ccc(Oc3ccc(Cl)cc3)cc2Cl)O1` [Ib] was tested, and the “Phytotoxic damage to wheat compared with the other stereoisomers” value was “less phytotoxic damage”.

Reference: patent publication US9462807B2, “Difenoconazole sterepospmeric composition with reduced phytotoxicity” (Syngenta Participations AG, priority 2013, dated 2016)
